“And” between values parts separate entries of the source, which are not always exact repeats. Equal values may be shown once.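 Five compound concentrations were applied to cells in 96-well plates for 48 hours; endpoints were derived by simple linear interpolation of the resulting dose-response curve. GI50: concentration for 50% inhibition of growth. TGI is the concentration that stops growth completely.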

Ten compounds from PubChem BioAssay (NCI) can be followed below.

Some test systems named below: OVCAR-3 ovarian; OVCAR-4 ovarian; K-562 leukemia; UACC-62 melanoma; HL-60(TB) leukemia; SW-620 colon; MALME-3M melanoma; SN12C renal; MOLT-4 leukemia; SK-MEL-28 melanoma.
What all share (assay): DTP human tumour cell line panel, 48 h

A word on the TGI: it is the concentration at which net growth stops. A lower TGI goes with more potent growth arrest. As for `O=C1C=C(Nc2ccccc2C(=O)CC(=O)C(=O)Nc2ccc(Cl)cc2)c2ccccc2C1=O`, the total growth inhibition concentration (TGI) with OVCAR-3 ovarian is 9.29 µM; in the test on OVCAR-4 ovarian, 37 µM; in the test on K-562 leukemia, 40.9 µM; in the test with UACC-62 melanoma, 29.8 µM; in the test on HL-60(TB) leukemia it was over 100 µM; with SW-620 colon, 27 µM. Further, the TGI is 24.1 µM with MALME-3M melanoma, 26 µM in the test with SN12C renal, over 38.5 µM in the test with MOLT-4 leukemia and 35 µM in the test on SK-MEL-28 melanoma.

As for `O=C(O)CN(c1ccccc1)S(=O)(=O)c1cccc([N+](=O)[O-])c1`, the TGI in the test with OVCAR-3 ovarian, with OVCAR-4 ovarian, with K-562 leukemia, in the test on UACC-62 melanoma, with HL-60(TB) leukemia and in the test on SW-620 colon was over 100 µM in each case. In addition, the TGI in the test on MALME-3M melanoma, in the test on SN12C renal, in the test with MOLT-4 leukemia and in the test on SK-MEL-28 melanoma was over 100 µM throughout.

As for `O=C(COc1ccccc1Cl)N1N=C(c2ccccc2)CC1(O)c1ccccc1` (stereo not given), the TGI amounted to 33.6 µM in the test on OVCAR-3 ovarian; 23.4 µM in the test with OVCAR-4 ovarian; 54.9 µM with K-562 leukemia; 33.5 µM with UACC-62 melanoma; 30.6 µM with HL-60(TB) leukemia; 79.1 µM in the test with SW-620 colon. Also, the total growth inhibition concentration (TGI) in the test with MALME-3M melanoma worked out at 31.7 µM; in the test on SN12C renal it was 25.6 µM; with MOLT-4 leukemia, 58.8 µM; in the test on SK-MEL-28 melanoma, 31.7 µM.

One may read the GI50 as the concentration that inhibits growth by half. As for `Cc1ccc(-c2nc3nc(-c4ccc(F)cc4)nc(N4CCNCC4)c3o2)cc1`, the GI50 is 1.86 µM in the test on OVCAR-3 ovarian; 1.89 µM with OVCAR-4 ovarian; 1.46 µM in the test on K-562 leukemia; 15.4 µM in the test with UACC-62 melanoma; 1.91 µM in the test with HL-60(TB) leukemia; 1.76 µM in the test on SW-620 colon. Further, the GI50 with MALME-3M melanoma was 6.94 µM; in the test with SN12C renal it was 5.54 µM; in the test on MOLT-4 leukemia, 2.1 µM; in the test on SK-MEL-28 melanoma, 14.9 µM. In addition, the TGI was found to be 3.5 µM with OVCAR-3 ovarian; 3.5 µM in the test on OVCAR-4 ovarian; 5.44 µM in the test on K-562 leukemia; 29.9 µM in the test with UACC-62 melanoma; 4.3 µM in the test on HL-60(TB) leukemia; 3.61 µM in the test with SW-620 colon. Also, the TGI in the test on MALME-3M melanoma was 19.6 µM; in the test on SN12C renal, 19.8 µM; with MOLT-4 leukemia, 4.42 µM; with SK-MEL-28 melanoma it was 28.7 µM.

As for `Oc1c(C(Nc2ccccn2)c2cccc(Oc3ccccc3)c2)ccc2cccnc12` (stereo not given), the GI50 with OVCAR-3 ovarian is 0.56 µM; with OVCAR-4 ovarian, 0.361 µM; with K-562 leukemia, 0.374 µM; in the test with UACC-62 melanoma, 0.31 µM; with HL-60(TB) leukemia, 0.432 µM; in the test on SW-620 colon, 0.422 µM. For the same compound, the GI50 is 0.806 µM in the test with MALME-3M melanoma, 0.591 µM in the test with SN12C renal, 0.436 µM with MOLT-4 leukemia and 0.63 µM in the test with SK-MEL-28 melanoma. Also, the TGI with OVCAR-3 ovarian is 13.4 µM; with OVCAR-4 ovarian it was 13.4 µM; in the test with K-562 leukemia, over 100 µM; with UACC-62 melanoma, 1.29 µM; in the test on HL-60(TB) leukemia, 37 µM; in the test on SW-620 colon, 20.7 µM. Moreover, the TGI is 19.7 µM in the test on MALME-3M melanoma, 20.9 µM in the test with SN12C renal, over 100 µM in the test on MOLT-4 leukemia and 17.8 µM with SK-MEL-28 melanoma.

On to `CC1CCCC(C(=O)CC2CC(=O)NC(=O)C2)C1=O` (stereo not given), for which the concentration for total growth inhibition (TGI) with OVCAR-3 ovarian, in the test on OVCAR-4 ovarian, in the test on K-562 leukemia, in the test with UACC-62 melanoma, in the test with HL-60(TB) leukemia and in the test with SW-620 colon was over 100 µM in each case. Moreover, the TGI in the test with MALME-3M melanoma, in the test on SN12C renal, in the test on MOLT-4 leukemia and in the test with SK-MEL-28 melanoma was over 100 µM each time.

On to `N#CC1C[C@@H]2CC3(CCC2CN1C(=O)c1ccccc1)OCCO3` (stereo not given in full), for which the TGI in the test on OVCAR-3 ovarian, in the test with OVCAR-4 ovarian, in the test on K-562 leukemia, in the test on UACC-62 melanoma, in the test on HL-60(TB) leukemia and with SW-620 colon was over 100 µM throughout. The TGI in the test on MALME-3M melanoma, with SN12C renal, in the test on MOLT-4 leukemia and in the test on SK-MEL-28 melanoma was over 100 µM in each case.

Take `Cc1ccc(F)c(NC(=O)Nc2ccc(-c3cccc4[nH]nc(N)c34)cc2)c1`: the GI50 with OVCAR-3 ovarian was 2.85 µM and 3.15 µM; in the test with OVCAR-4 ovarian, 3.1 µM and 3.8 µM; in the test on K-562 leukemia, 3.66 µM and 2.28 µM; in the test on UACC-62 melanoma, 3.27 µM and 4.2 µM; with HL-60(TB) leukemia it was 1.95 µM and 3.29 µM; in the test on SW-620 colon, 2.4 µM and 2.58 µM. Besides, the GI50 in the test on MALME-3M melanoma is 4.24 µM and 2.64 µM; in the test on SN12C renal, 3.16 µM and 3.54 µM; in the test on MOLT-4 leukemia, 3.13 µM and 3.08 µM; in the test with SK-MEL-28 melanoma, 3.94 µM and 3.85 µM. For the same compound, the total growth inhibition concentration (TGI) was 7.76 µM and > 10 µM with OVCAR-3 ovarian; 17.1 µM and > 10 µM with OVCAR-4 ovarian; > 57.5 µM and 9.29 µM with K-562 leukemia; 11.7 µM and > 10 µM with UACC-62 melanoma; 5.63 µM and > 10 µM with HL-60(TB) leukemia; 6.73 µM and 9.58 µM in the test on SW-620 colon. The TGI with MALME-3M melanoma was 16.4 µM and 7.36 µM; in the test with SN12C renal, 13 µM and > 10 µM; in the test on MOLT-4 leukemia, over 42.9 µM; in the test on SK-MEL-28 melanoma, 18.7 µM and > 10 µM.

For the compound `Cc1ccc([Se](=C(C(=O)c2ccccc2)C(=O)c2ccccc2)c2ccc(C)cc2)cc1`, the total growth inhibition concentration (TGI) was 74.1 µM with OVCAR-3 ovarian; 50.1 µM in the test with OVCAR-4 ovarian; 84.5 µM in the test with K-562 leukemia; 51.5 µM with UACC-62 melanoma; 54.2 µM in the test on HL-60(TB) leukemia; over 100 µM in the test with SW-620 colon. Besides, the total growth inhibition concentration (TGI) in the test on MALME-3M melanoma was 50.3 µM; in the test with SN12C renal, 36.7 µM; with MOLT-4 leukemia, 43.3 µM; in the test with SK-MEL-28 melanoma, over 100 µM.

Consider `Cc1ccc(C)c2c1C(=O)N(c1ccc(F)cc1F)C2=O`, for which the GI50 in the test with OVCAR-3 ovarian, in the test on OVCAR-4 ovarian, with K-562 leukemia, in the test with UACC-62 melanoma, in the test on HL-60(TB) leukemia and in the test on SW-620 colon was over 100 µM each time. The GI50 in the test with MALME-3M melanoma, with SN12C renal, in the test on MOLT-4 leukemia and with SK-MEL-28 melanoma was over 100 µM throughout. Besides, the TGI with OVCAR-3 ovarian, in the test on OVCAR-4 ovarian, in the test on K-562 leukemia, in the test with UACC-62 melanoma, in the test with HL-60(TB) leukemia and in the test on SW-620 colon was over 100 µM each time. The TGI in the test with MALME-3M melanoma, in the test with SN12C renal, in the test on MOLT-4 leukemia and in the test on SK-MEL-28 melanoma was over 100 µM in each case.
